Results from US20080166766A1, “Genetic incorporation of unnatural amino acids into proteins in mammalian cells” (The Scripps Research Institute, priority 2006, published 2008).
Blank lines part the entries; values can stand above or below the molecule they belong to.

Key:
T-REx™ CHO cells = test: Yield of purified mutant GFP containing unnatural amino acid (pSWAN two-plasmid system); type: cell-based, Chinese hamster; details: pMpa 10 mM, pApa 10 mM, pBpa 1 mM, pAzpa 5 mM, pPpa 1 mM in media, anti-myc column purified
Excerpt: The pMpaRS gene was inserted directly after the non-regulated CMV promoter for efficient and continuous expression of pMpaRS. Another plasmid (pSWAN-GFP37TAG in FIG. 4B) containing both three tandem repeats of the BstRNACUA^Tyr gene and the GFP37TAG gene was also constructed. The gene encoding GFP37TAG was inserted after a Tet-regulated CMV promoter to minimize potential read-through of the nonsense amber codon caused by endogenous amber suppression in mammalian cells. These two plasmids were then assayed for their suppression efficiency. Because both plasmids contain three tandem repeats of the BstRNACUA^Tyr gene, varying the ratio of the two plasmids to increase the suppression level is not expected to change the total amount of the BstRNACUA^Tyr gene transfected into cells. Under optimized transfection conditions (0.5 μg of pSWAN-pMpaRS and 2.5 μg pSWAN-GFP37TAG per 2×10^6 cells), the suppression level is roughly two-fold higher than that using the three plasmids pUC18-3BstRNACUA^Tyr, pcDNA4-pMpaRS, and pcDNA4-GFP37TAG (the suppression level was determined by the number of fluorescent cells). Cells were grown for 1-2 days after induction and kept viable before harvesting. The yield of mutant GFP containing pMpa (GFP-pMpa) was also quantified. In the presence of 10 mM pMpa in the growth media, 1 μg of mutant GFP can be obtained from 2×10^7 adhesive T-REx™ CHO cells.
Transient transfection of T-REx™ CHO and 293 cells with the pSWAN-EcTyrRS variants and pSWAN-GFP37TAG (0.5 μg of pSWAN-EcTyrRS variant and 2.5 μg of pSWAN-GFP37TAG per 2×10^6 cells) all afforded roughly two-fold higher suppression levels than for the three plasmids pUC18-3BstRNACUA^Tyr, pcDNA4-EcTyrRS variant, and pcDNA4-GFP37TAG (with the exception of the pIpa specific variant). Mutant GFPs containing pApa, pBpa, pAzpa or pPpa were also expressed in T-REx™ CHO cells transfected with the pSWAN-EcTyrRS variants and pSWAN-GFP37TAG and grown in media containing the corresponding unnatural amino acid (pApa, 10 mM; pBpa, 1 mM; pAzpa, 5 mM; or pPpa, 1 mM) for 1-2 days, and purified using an anti-myc antibody column. The yields of the mutant proteins containing pApa and pAzpa were close to that for pMpa (˜1 μg per 2×10^7 cells), and the yields of mutant proteins containing pBpa and pPpa were somewhat lower (˜0.7 μg per 2×10^7 cells). Because the expression levels of EcTyrRS variants in T-REx™ CHO cells are similar, the lower yield of the mutant proteins containing pBpa and pPpa may be due to the low concentrations of unnatural amino acids in the media.
pSWAN-EcTyrRS variants and pSWAN-GFP37TAG were used to express mutant GFPs containing unnatural amino acids. T-REx™ CHO cells (Invitrogen™) were grown in 75 cm^2 tissue culture flasks (BD Biosciences) to 80-90% confluency and transfected with 2 μg of pSWAN-EcTyrRS and 10 μg pSWAN-GFP37TAG using […] FuGENE® 6. After overnight incubation, the media were changed to the fresh media containing the unnatural amino acid (pMpa, 10 mM; pApa, 10 mM; pBpa, 1 mM; pAzpa, 5 mM; and pPpa, 1 mM) and 1 μg/ml tetracycline. Cells were then grown for 1-2 days at 37° C. before harvesting, and then lysed with RIPA lysis buffer. The supernatant from the cell lysate was dialyzed against and equilibrated with PBS buffer before loading onto an anti-myc antibody agarose column (Sigma). The column was washed with 15 column volumes of PBS buffer and then eluted with 0.1 M ammonium hydroxide. The purified proteins were neutralized with 0.1 M acetic acid and analyzed by SDS-PAGE. […]

position 37 of GFP = test: Fidelity of unnatural amino acid incorporation by mass spectrometry (nano-RP LC/MS/MS, ESI TOF-MS); details: nano-RP LC/MS/MS of tryptic fragments, mutant GFP from T-REx CHO cells
Excerpt: To further characterize GFP-pMpa, the mutant protein was expressed in T-REx™ CHO cells transiently transfected with both pSWAN-pMpaRS and pSWAN-GFP37TAG. The protein was purified using an anti-myc antibody agarose column and then separated by SDS-PAGE. The GFP-pMpa band from the SDS-PAGE gel was digested with trypsin and analyzed by nanoscale reversed-phase liquid chromatography/mass spectrometry/mass spectrometry (nano-RP LC/MS/MS). In parallel, wild type GFP was purified from cells transfected with pcDNA4-GFP and subjected to the same analysis.
Proteolysis of affinity purified proteins (performed for wild-type and pBpa samples) was carried out by overnight incubation of proteins at 37° C. with sequencing-grade modified trypsin (Promega) using a substrate/enzyme ratio of 10:1 (wt/wt) based on the estimated protein concentration in 100 mM triethylammonium bicarbonate buffer (pH 8.5). In-gel digestions (performed for pMpa, pAzpa, pApa, and pPpa samples) were performed according to a modified EMBL procedure (see the website for EMBL, Heidelberg, Germany, Bioanalytical Research Group). Briefly, gel slices were excised to approximately 1 mm×1 mm cubes, washed for 5 minutes with water, 15 minutes with acetonitrile, and dried in a vacuum centrifuge before being rehydrated at 0° C. for 30 minutes with 12.5 ng/μl of sequencing-grade modified trypsin in 50 mM triethylammonium bicarbonate buffer (pH 8.5). Excess buffer was removed and 20 μl of 50 mM triethylammonium bicarbonate buffer (pH 8.5) was added to the gel slices before incubating at 37° C. overnight. Peptides were extracted from the gel slices as described in the protocol.
(§1) Nano-RP LC/MS/MS was performed with an HPLC pump, autosampler (Agilent Technologies, Palo Alto, Calif.), and an LTQ Orbitrap hybrid mass spectrometer (ThermoElectron, San Jose, Calif.). Tryptic digests were loaded with a pressure bomb onto a 75 μm i.d. precolumn packed with 4 cm of 5-μm Monitor C18 particles (Column Engineering, Ontario, Calif.) at a flow rate of approximately 2 μl/min. The precolumn was then connected to the HPLC pump and after several minutes of washing with solvent A the analytical column with integrated emitter tip (360 μm O.D.×75 μm i.d; 10 cm of 5 μM C18, ˜5-μm tip) was connected in series. The chromatographic profile was from 100% solvent A (0.1% aqueous acetic acid) to 50% solvent B (0.1% acetic acid in acetonitrile) in 40 min; the flow rate through the analytical column was ca. 100 nl/min.
For data-dependent experiments, the mass spectrometer was programmed to first record a high-resolution Orbitrap scan then a full-scan ion trap spectrum (m/z 500-2,000). This was followed by 10 data-dependent MS/MS scans (relative collision energy=35%; 3-Da isolation window) triggered of the ion-trap scan and finally two targeted MS/MS scans. The first targeted MS/MS scan was set to isolate and fragment the doubly charged precursor ion of the predicted unnatural amino acid modified peptide
at m/z 752.3. The raw data were searched against the MSDB database using MASCOT (Matrixscience, London, UK) for protein identification and to find the scans containing the target peptides with the unnatural amino acids as variable modification. To estimate fidelity at Y*37 of GFP-pMpa, single ion chromatograms (doubly charged precursor ions at m/z 752.3 for the wt and 759.3 for pMpa) and selected ion chromatograms (y9, y11, and y12) were integrated using the Xcalibur software package (ThermoElectron, San Jose, Calif.).
Intact protein mass spectra were acquired on an automated LC/MS system (Waters, Milford, Mass.) consisting of a capillary LC with auto-sampler and a QTOF2 mass spectrometer. GFP-pMpa (0.1 mg/ml) was loaded onto a reversed-phase protein Captrap (Michrom Bioresources, Auburn, Calif.) for desalting with 0.1% acetic acid in water and eluted with 80% acetonitrile/0.1% acetic acid at 5 μl/min into the ESI source of the mass spectrometer. […]

[1] = Decay of azido amino acid seen in tandem MS of mutant GFP; type: physicochemical; details: mutant GFP containing pAzpa; azido group chemically reactive and photo-unstable
Protocol: The mutant GFP containing pAzpa was only weakly detectable. […] The data from all five mutant proteins indicate the high selectivity and fidelity of the incorporation of unnatural amino acids.
as §1

mammalian cells = test: Cellular toxicity of heterologous synthetase expression; type: cell-based; details: under the growth conditions used

decay of the amino acid in mutant GFP (tandem MS) [1]: Most of pAzpa decays to pAmpa
Molecule: [N-]=[N+]=Nc1ccc(C[C@H](N)C(=O)O)cc1 [pAzpa, p-azidophenylalanine]
yield of mutant GFP containing the unnatural amino acid (T-REx™ CHO cells): ~1 μg per 2×10^7 cells | wild type peptide signals in tandem MS of mutant GFP sample (position 37 of GFP): No wild type signals could be detected

B1: pMpaRS: EcTyrRS variant Y37V/D182S/F183M that charges BstRNACUA^Tyr with pMpa (protein, UniProt P0AGJ9 2-424, looked up, variant Y37V D182S F183M)
Tyrosine--tRNA ligase: ASSNLIKQLQERGLVAQVTDEEALAERLAQGPIALVCGFDPTADSLHLGHLVPLLCLKRFQQAGHKPVALVGGATGLIGDPSFKAAERKLNTEETVQEWVDKIRKQVAPFLDFDCGENSAIAANNYDWFGNMNVLTFLRDIGKHFSVNQMINKEAVKQRLNREDQGISFTEFSYNLLQGYSMACLNKQYGVVLQIGGSDQWGNITSGIDLTRRLHQNQVFGLTVPLITKADGTKFGKTEGGAVWLDPKKTSPYKFYQFWINTADADVYRFLKFFTFMSIEEINALEEEDKNSGKAPRAQYVLAEQVTRLVHGEEGLQAAKRITECLFSGSLSALSEADFEQLAQDGVPMVEMEKGADLMQALVDSELQPSRGQARKTIASNAITINGEKQSDPEYFFKEEDRLFGRFTLLRRGKKNYCLICWK
cellular toxicity of heterologous expression (mammalian cells): did not show any apparent cellular toxicity
